Common to all, as to experiment: Stability of Fe-S cluster binding of purified NEET protein (absorbance 458 nm)
What all share (format): biochemical

Assay [1] has as its target T1, CISD2 Gene Product (NAF-1) (Homo sapiens, UniProt Q8N5K1).
T1 sequence (Q8N5K1 57-135 limits assumed): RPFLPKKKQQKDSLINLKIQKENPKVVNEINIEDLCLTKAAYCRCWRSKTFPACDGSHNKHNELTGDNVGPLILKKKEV
On the procedure: (§1) The modulator effect on the NEET proteins encoded by human CISD1, CISD2, and CISD3 genes by the compounds of the invention has been tested and is reported below. Particularly, the biochemical function of the NEET proteins is measured by the stability of Fe—S cluster binding of the purified NEET proteins.
(§2) The Fe—S cluster binding capacity of NEET proteins is known to be coordinated by four amino-acids in a stretch of 16 (three Cysteine and one Histidine). As the lability of the Fe—S cluster of NEET proteins is sensitive to the environment, cluster stability measurements are one of the measures of interactions of NEET proteins with small molecules and compounds. NEET protein/2Fe-2S cluster stability can be assessed by monitoring the decay in absorbance of its characteristic 458-nm peak (characteristic of the oxidized 2Fe-2S cluster) over time. Each NEET protein (mitoNEET, NAF-1 and Miner 2) was tested for its Fe—S binding in the absence or presence of a compound according to the invention (see table 3 below). The rate of cluster release (time in minutes to achieve 50% loss of bound Fe—S cluster) was compared for each NEET protein in the presence of one of the compounds of the invention (in a 1:3 protein:compound molar ratio) relative to each protein alone.
(§3) At pH 6, all the three NEET proteins (mitoNEET, NAF-1 and Miner 2) have a characteristic rate of loss of the bound Fe—S cluster that can be measured by the decrease of absorbance at wavelength 458 nm over time, using a spectrophotometer. Thus, Bis-Tris buffer (100 mM Bis-Tris pH6, 100 mM Nacl) was used at pH 6 to dilute either DMSO (Blank sample: Bis-Tris Buffer pH 6, 66 μM DMSO), DMSO and one of the three NEET proteins (Control sample: Bis-Tris Buffer pH 6, 66 μM DMSO, 20 μM purified NEET protein) or DMSO, one of the three NEET proteins and a compound of the invention (Test sample: Bis-Tris Buffer pH 6, 66 μM DMSO, 20 μM purified NEET protein, 60 μM compound of the invention).
(§4) A reaction mix containing DMSO diluted in the Bis-Tris Buffer with or without a compound of the invention was prepared. The purified NEET protein was the last component added to the reaction mix which was then aliquoted into 4 replicates in 96 wells plates. The absorbance at wavelength 458 nm was taken at 5 minutes intervals at 37° C. with a spectrofluorimeter. The assay run time for CISD2 gene product (NAF-1) was 500 minutes and 180 minutes for both the CISD 1 gene product (mitoNEET) and the CISD3 gene product (Miner 2).
(§5) In addition to time monitoring, residual bound Fe—S cluster to NEET protein was measured at the final point of the spectrometry assay for each Test sample and compared to the Control sample data (in parenthesis table 3). This residual binding is measured by the differential percentage between the absorbance 458 nm at time zero and the absorbance 458 nm at the end of the experiment (i.e. respectively 500 or 180 minutes as described hereabove), showing the percentage of NEET protein still able to bind Fe—S cluster.
(§6) Analysis of the absorbance enables the time for which 50% loss of bound Fe—S cluster is reached (i.e. a 50% absorbance decrease at 458 nm) for each Test sample and each Control sample (in parenthesis table 3) to be determined. The data are then compared to determine whether the compound of the invention stabilizes or destabilizes the NEET protein/Fe—S cluster binding.
(§7) Stabilisers of Fe—S cluster binding by the NEET proteins slow the release of bound Fe—S (i.e. increase the time needed to reach 50% Fe—S cluster bound loss by more than 25% for the Test sample compared to the Control sample). As illustrated by table 3, at the concentrations tested, stabilisers of CISD1 Gene Product (mitoNEET) are the compounds #9, #18, #26, #2, #1, and #42. Stabilisers of CISD2 Gene Product (NAF-1) are the compounds #2, #1, and #40. Stabilisers of CISD3 Gene Product (Miner2) are the compounds #9, #18, #26, #2, #1, and #42.

For assay [2], the target named is T2, CISD1 Gene Product (mitoNEET) (Homo sapiens, UniProt Q9NZ45).
T2 sequence (Q9NZ45 33-108 limits assumed): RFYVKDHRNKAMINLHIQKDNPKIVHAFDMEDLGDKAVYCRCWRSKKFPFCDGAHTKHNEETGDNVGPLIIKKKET
On the procedure: as §1, §2, §3, §4, §5, §6, §7

The target of assay [3] is T3, CISD3 Gene Product (Miner2) (Homo sapiens, UniProt P0C7P0).
T3 sequence (P0C7P0 15-127): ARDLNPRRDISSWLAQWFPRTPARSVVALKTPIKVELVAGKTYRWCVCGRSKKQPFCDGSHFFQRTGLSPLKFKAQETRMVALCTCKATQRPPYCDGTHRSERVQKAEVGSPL
As for the experimental part: as §1, §2, §3, §4, §5, §6, §7

With `O=C(Nc1scc(-c2ccc(Cl)c(F)c2)c1C(=O)O)c1ccccc1` [Compound #2, 2-Benzamido-4-(4-chloro-3-fluoro-phenyl)thiophene-3-carboxylic acid], the “Residual cluster bound at end of experiment (Percentage Absorbance 458 nm at time zero)” value in assay [1] (at 500 minutes, 60 μM compound, vehicle control 3%) was 18% (3%); in assay [2] (at 180 minutes, 60 μM compound, vehicle control 16%), 36% (16%); in assay [3] (CISD3 gene product, at 180 minutes, 60 μM compound, vehicle control (DMSO) 11%), 52% (11%). The “Stabiliser of Fe—S cluster binding (time to 50% loss increased by more than 25% vs control)” value was “Stabilisers” in assay [1] (at the concentrations tested); “stabilisers” in assay [2] (at the concentrations tested); “Stabilisers” in assay [3] (Miner2, at the concentrations tested). For the same compound, the “Time (in minutes) to achieve 50% loss of bound cluster (Absorbance 458 nm)” value in assay [1] (pH 6, 37° C., 20 μM protein, 60 μM compound, run time 500 minutes, vehicle control 310) is on record as “during 500 minutes”; in assay [2] (pH 6, 37° C., 20 μM protein, 60 μM compound, run time 180 minutes, vehicle control 80), “during 180 minutes”; in assay [3] (Miner2, pH 6, 37° C., 20 μM protein, 60 μM compound, run time 180 minutes, vehicle control 60), “during 180 minutes”.

The record behind these values is patent US11840527B2, “Non-fused thiophene derivatives and their uses” (ENYO PHARMA, priority 2018, dated 2023).
